{
  "source": "paper PMC4372538",
  "about": "“Advantages of the Phosphatidylserine-Recognizing Peptide PSP1 for Molecular Imaging of Tumor Apoptosis Compared with Annexin V” (PLoS ONE, 2015)",
  "key": {"apoptotic H460 cells [1]": {"test_system": "apoptotic H460 cells", "assay": "FACS binding to apoptotic H460 cells", "format": "cell-based, human", "details": "FITC-labeled, etoposide 50 μM 22 hrs, 2, 10, 20, 50 μg/ml, binding buffer 10 mM Hepes pH 7.4, 150 mM NaCl ± 2 mM CaCl2, 4°C, 1 hr", "procedure": "The human lung cancer cell H460, which was obtained from the American Type Culture Collection (ATCC), was maintained in RPMI-1640 media supplemented with 10% heat-inactivated fetal bovine serum (FBS) and penicillin G/streptomycin at 37°C in a humidified atmosphere of 95% air and 5% CO2.\nTo induce apoptosis of lung tumor cells (H460), the cells (5×10^6 cell) were grown overnight and then treated with etoposide (50 μM) (Sigma) in serum-free media for 22 hrs, followed by washing with phosphate-buffered saline (PBS) and binding buffer (10 mM Hepes (pH 7.4), 150 mM NaCl, and 2 mM CaCl2).\nControl peptide (grey); FITC-NSSSVDK."}, "[2]": {"test_system": "apoptotic tumor cells in H460 tumor-bearing mice", "assay": "in vivo fluorescence imaging of tumors after apoptosis induction", "parameters": "species or system BALB/c nude mice; human H460 tumor", "details": "Cy7.5-labeled", "procedure": "Female nude mice (BALB/c nude; body weight, 20±3 g; n = 5) were housed in a specific pathogen-free environment at 22±2°C and 55±5% relative humidity with light. Tumors were generated by subcutaneously injecting H460 cells (5×10^6 cells) into the right shoulder of 6-wk-old female BALB/c nude mice and allowing them to grow for 3 weeks (size of 0.5 to 0.7 cm). For in vivo analysis of tumor targeting, the tumor-bearing mice were either treated or not treated with a single dose of camptothecin (10 mg/kg) 24 hrs prior to intravenous injection of Cy7.5-labeled PSP1, Cy7.5-annexin V or Cy7.5-labeled control peptide into the tail vein under inhalational anesthesia (1% (w/v) isoflurane in 2 L oxygen).\nIn vivo fluorescence images were taken at different time intervals after peptide injection (10 min, 1 h, 3 h, 6 h, and 12 h) using an eXplore Optix system (ART Advanced Research Technologies Inc., Montreal, Canada), which has excitation/emission wavelengths of 778 nm/805 nm. The obtained images were processed using eXplore Optix OptiView Software and normalized based on the baseline fluorescence, assessed for each mouse prior to peptide injection.\nFig 4 In vivo imaging of tumors after apoptosis induction. (A) Cy7.5-labelled PSP1peptide, control peptide, or annexin V was systematically injected into the tail vein of tumor-bearing nude mice treated with camptothecin 24 hrs before injection. The same amount of annexin V was also injected into non-camptothecin-treated tumor-bearing mice as a control. The homing of the peptides was examined after the indicated times using an optical imaging system. The white dotted circles indicate the tumors. (B) Histological examination of tumor tissues after homing of PSP1 and annexin V, performed under a fluorescence microscope. Tumor cell apoptosis was observed by TUNEL staining."}, "PS liposomes": {"molecular_target": "PS liposomes", "assay": "SPR binding to PS liposomes", "excerpt": "To compare the kinetics of annexin V and PSP1 peptide binding to PS liposomes, SPR spectroscopy was employed (Reichert Inc, NY, USA). PC and PS liposomes (0.8:0.2 PC:PS) were generated as previously described and were homogenously purified using a liposome mini-extruder with a 100 nm membrane filter, based on the manufacturer’s protocol (Avanti Polar Lipids). […] Briefly, phytosphingosine was immobilized by activating the carboxymethyl groups on dextran-coated chips (Reichert Life Sciences) through a reaction with N-hydroxysuccinimide (Sigma-Aldrich), followed by covalent bonding of the ligands to the chip surface via amide linkages and blocking of excess activated carboxyls with ethanolamine. The purified PS or PC liposomes were captured on the phytosphingosine layer at a flow rate of 5 μl/min in liposome immobilization buffer (10 mM Tris-HCl (pH 8.0), 100 mM NaCl, and 2 mM CaCl2). To use the PC-immobilized surface as a control, the injected PS or PC liposome volume was adjusted to an immobilization level of approximately 4000±200 RU. Different concentrations of the PSP1 peptide (0.313 to 5 μM) and annexin V (3.13 to 100 nM) in running buffer (10 mM Tris-HCl (pH 8.0), 100 mM NaCl, 2 mM CaCl2, and 62.5 μg/ml BSA) were allowed to flow over the surfaces bound to the immobilized liposomes for 3 min at a rate of 30 μl/min. The sensor surface was regenerated after each association and dissociation cycle by injecting 10 mM EDTA for 20 s, followed by 50 mM NaOH for 10 s. The interaction of the ligand and the analyte was analyzed using Scrubber 2 Biologic software (http://www.biologic.com.au/). The binding kinetics was assessed by determining the association (kon), dissociation (koff), and equilibrium (KD) constants.\nThe in vitro binding affinity of PSP1 and annexin V for PS was further examined using SPR analysis (Fig. 2). […] We immobilized PS liposomes on the surface of an SPR chip, applied a series of different concentrations of PSP1 or annexin V, and examined the binding kinetics. PS-specific binding was determined by subtracting binding responses to a PC liposome-coated surface from those obtained using a PS liposome-coated […] surface.\nFig 2 In vitro SPR analysis of PSP1 and annexin V binding to PS liposomes. (A) The indicated concentrations of PSP1 were injected onto the liposome-immobilized surface. Responses (RU) from the PC liposome-coated surface (reference) were subtracted from those from the PS:PC (2:8) liposome surface to monitor PS-specific binding. The equilibration binding constant (KD) and the association (Kon) and dissociation (Koff) rate constants were estimated using the Scrubber program. (B) Plots of the RU values of annexin V at the indicated concentrations."}, "apoptotic H460 cells [3]": {"test_system": "apoptotic H460 cells", "assay": "confocal microscopy of binding to apoptotic H460 cells", "format": "cell-based, human"}, "[4]": {"details": "calcium-dependent; ref [9],[10]; cited from earlier work", "excerpt": "(§1) The exposure of phosphatidylserine (PS) on the outer surface of the plasma membrane bilayer, an early biochemical event in apoptosis, is an attractive target for molecular imaging of dying cells. During chemo- and radiotherapy, subsequent necrosis also results in PS exposure due to disruption of the plasma membrane’s integrity. […] The stability and biodistribution of annexin V derivatives depend ..."}, "[5]": {"test_system": "necrotic and nonapoptotic cells with exposed anionic lipids", "details": "under specific physiological or pathological conditions, ref [12], cited from earlier work", "excerpt": "as §1"}, "[6]": {"details": "PS:PC (2:8) liposomes, PC response subtracted, Tris-HCl pH 8.0, 2 mM CaCl2, Scrubber, value from picture"}},
  "note": "“Also recorded” adds a separate entry of the source. Like-named read-outs stand apart in the source and are kept apart here.",
  "data": [
    {"substance": "annexin V: endogenous 36-kDa human protein that binds to PS with nanomolar affinity; His-tagged, expressed in Escherichia coli BL-21", "values": [
      {"measurement": "binding to apoptotic H460 cells (FACS)", "setting": "apoptotic H460 cells [1]", "result": "specifically bound to apoptotic H460 cells in a concentration-dependent manner"},
      {"measurement": "binding to apoptotic H460 cells (FACS)", "setting": "apoptotic H460 cells [1]; listed as Annexin V", "result": "appeared to exhibit a greater ability to bind to apoptotic cells"},
      {"measurement": "duration of in vivo fluorescence signal in tumor region", "setting": "[2]; i.v. tail vein, camptothecin 10 mg/kg 24 hrs before, PSP1 10 μg/200 μl (23.16 μM), annexin V 100 μg/200 μl (14.3 μM)", "result": "more than 12 hrs"},
      {"measurement": "in vivo tumor homing, non-camptothecin-treated", "setting": "[2]; i.v., 100 μg/200 μl, non-camptothecin-treated tumor-bearing mice", "result": "did not home to the tumor region"},
      {"measurement": "in vivo tumor homing", "setting": "[2]; i.v., camptothecin-treated H460 tumor-bearing mice, n = 5, imaging 10 min to 12 h, PSP1 10 μg/200 μl, annexin V and control peptide 100 μg/200 μl", "result": "weak signals; also recorded: rapidly observed in the tumor region"},
      {"measurement": "Kd", "setting": "PS liposomes; PS liposomes, PC liposome response subtracted, Tris-HCl pH 8.0, 2 mM CaCl2, read-out: in vitro binding affinity (equilibrium binding constant)", "result": 3.1, "unit": "nM"},
      {"measurement": "equilibration binding constant (KD)", "setting": "PS liposomes; PS:PC (2:8) liposomes on phytosphingosine/CMDH chip, PC liposome response subtracted, 10 mM Tris-HCl pH 8.0, 100 mM NaCl, 2 mM CaCl2, 62.5 μg/ml BSA, PSP1 0.313 to 5 μM, annexin V 3.13 to 100 nM, 3 min, 30 μl/min, Scrubber 2, values from picture", "result": 3.15, "unit": "nM"},
      {"measurement": "association rate constant (Kon)", "setting": "PS liposomes; [6]", "result": "1.05±0.76×10^6 M^-1S^-1"},
      {"measurement": "dissociation rate constant (Koff)", "setting": "PS liposomes; [6]", "result": "1.75±1.28×10^-3 S^-1"},
      {"measurement": "apoptotic cell-specific signal (confocal microscopy)", "setting": "apoptotic H460 cells [3]; FITC-labeled, 20 μg/ml, apoptotic H460 (etoposide 50 μM), 4°C, 1 hr", "result": "significantly weaker at the same concentration"},
      {"measurement": "predicted sensitivity of annexin V over PSP1", "setting": "apoptotic H460 cells [3]; same concentration, predicted from KD ratio, molar concentration 1/16th and 0.7 FITC groups/molecule, not observed", "result": 150, "unit": "fold"},
      {"measurement": "PS binding affinity of annexin V", "setting": "[4]", "result": "binds to PS with nanomolar affinity in a calcium-dependent manner"},
      {"measurement": "specificity of annexin V for apoptotic cells", "setting": "[5]", "result": "not entirely specific for apoptotic cells"},
      {"measurement": "specificity of annexin V for apoptotic cells", "setting": "[5]; listed as Annexin V", "result": "targets necrotic as well as nonapoptotic cells with exposed anionic lipids"}
    ]}
  ]
}
